Experimental findings from ChEMBL document CHEMBL1131970, “The design of (-)-(S)-2-nitrooxyethyl 1,4-dihydro-2,6-dimethyl-3-nitro-4-(2-trifluoromethylphenyl) pyridine-5-carboxylate: a cardioselective positive inotropic derivative of Bay K 8644” (Bioorg Med Chem Lett, 1999) are described below.

pEC50, pIC50: −log10 of the molar value.

Type in all cases: functional
For assay [1], the species on record is Cavia porcellus. In words: In vitro for smooth muscle calcium channel antagonist activity. The note with it: Muscle tissue.
Assay [2] is filed under the species Cavia porcellus. The experiment in a line: In vitro for cardiac calcium channel (CC) agonist activity; Active. The note with it: read-out: ED50 (the source's name).
The species entered for assay [3] is Cavia porcellus. The experiment in a line: In vitro cardiac calcium channel (CC) agonist activity. The note with it: read-out: ED50 (the source's name).
The species named for assay [4] is Cavia porcellus. In words: In vitro release of nitric oxide by nitrite quantitation in the presence of N-acetyl-cysteamine by Griess reaction.
Assay [5] is filed under the species Cavia porcellus. The experiment in a line: In vitro release of nitric oxide by nitrite quantitation in the absence of N-acetyl-cysteamine by Griess reaction. A general note: Griess reagent forms a coloured azo dye with nitrite.

As to `CO/C(O)=C1\C(C)=NC(C)=C([N+](=O)[O-])[C@H]1c1ccccc1C(F)(F)F`, in the assay listed under Cavia porcellus [1], the pIC50 is 4.80. Also, the pEC50 in the assay listed under Cavia porcellus [2] is 6.04.

On to `CC1=NC(C)=C([N+](=O)[O-])[C@@H](c2ccccc2C(F)(F)F)/C1=C(\O)OCCO[N+](=O)[O-]`, for which, in the assay filed under Cavia porcellus [1], the pIC50 was 4.80. Moreover, the pEC50 in the assay filed under Cavia porcellus [3] is 6.04.

Take `CC1=NC(C)=C([N+](=O)[O-])[C@H](c2ccccc2C(F)(F)F)/C1=C(\O)OCCO[N+](=O)[O-]`: in the assay listed under Cavia porcellus [1], the pIC50 was 7.10. In addition, the pEC50 in the assay listed under Cavia porcellus [3] was 4.80.

Regarding `CC1=NC(C)=C([N+](=O)[O-])C(c2ccccc2C(F)(F)F)/C1=C(\O)OCCO[N+](=O)[O-]` (stereo not given), the Release in the assay filed under Cavia porcellus [4] amounted to 2.7%; in the assay listed under Cavia porcellus [5], 1.09%.

Regarding `O=[N+]([O-])OCC(CO[N+](=O)[O-])O[N+](=O)[O-]` [NITROGLYCERIN], the figures for the Release in the assay listed under Cavia porcellus [4] and in the assay listed under Cavia porcellus [5] were 5.3% and 0.18%, respectively.

For orientation: pIC50 means the IC50 on a negative log10 scale, so that one unit is a factor of ten.
